Laboratory results from US12507703B2, “Methods, devices and compositions for preserving human milk” (The Trustees of Princeton University, priority 2023, dated 2025).
“And” between values parts separate entries of the source, which are not always exact repeats. Equal values may be shown once. Where a name gives a salt, the structure may show the parent alone.

Tested on: lipase
Assay: Lipase/lipolysis assay (EnzChek Lipase Substrate, quenched BODIPY-fatty acid conjugate) on stored human milk; for Lipase (RFU): test concentration or dose not given here

Compound | Lipase (RFU) | Hit in lipase inhibition screen (in words)
COc1c2ccoc2c(O)c2oc(=O)ccc12 [Compound 8-Hydroxybergapten] | 800.3718 RFU | –
C/C1=C2/[N-][C@H]([C@H](CC(N)=O)[C@@]2(C)CCC(=O)NC[C@H](C)OP(=O)([O-])O[C@H]2[C@@H](O)[C@@H](n3cnc4cc(C)c(C)cc43)O[C@@H]2CO)[C@]2(C)N=C(/C(C)=C3N=C(/C=C4N=C1[C@@H](CCC(N)=O)C\4(C)C)[C@@H](CCC(N)=O)[C@]\3(C)CC(N)=O)[C@@H](CCC(N)=O)[C@]2(C)CC(N)=O.[CH3-].[Co+3] [Methylcobalamin] | 1187.639 RFU | –
COC(=O)[C@H](Cc1ccccc1)NC(=O)[C@H](CC(=O)O)NCCC(C)(C)C [Neotame] | 994.7737 RFU | –
Laminarin | 336.7375 RFU and 594.197 RFU | significantly inhibited lipase activity
N[C@@H](Cc1c[nH]c2ccccc12)C(=O)O [L-Tryptophan] | 1074.461 RFU and 1239.076 RFU | –
O=S(O)(O)=S [Thiosulfate] | 1139.701 RFU | –
O=C(O)[C@@H]1C[C@@H](O)CN1 [trans-4-Hydroxy L-Proline] | 608.0856 RFU | –
γ-Oryzanol | 1128.852 RFU | –
OC[C@H]1OC(O)[C@H](O)[C@@H](O)[C@@H]1O (stereo partly drawn) [D--Glucose] | 992.2563 RFU | –
NC(N)=NCCCC[C@H](N)C(=O)O [H-HoArg-OH] | 745.4822 RFU | –
CC1=C(/C=C/C(C)=C/C=C/C(C)=C/C=C/C=C(C)/C=C/C=C(\C)C=O)C(C)(C)CCC1 [β-Apo-8′-carotenal] | 958.4764 RFU and 851.8107 RFU | –
CC(C)[C@@H]1CC[C@H](C)CC1=O [(+)-Isomenthone] | 807.8808 RFU | –
COc1c(-c2ccccc2)oc2cc(O)cc(O)c2c1=O [Compound 3-O-Methylgalangin] | 819.4334 RFU | –
C[C@H](CCC(=O)NCCS(=O)(=O)O)[C@H]1CC[C@H]2[C@@H]3[C@H](O)C[C@@H]4C[C@H](O)CC[C@]4(C)[C@H]3C[C@H](O)[C@]12C [Taurocholic acid (sodium salt hydrate)] | 1148.675 RFU | –
CCCCCCCCCCCC(=O)O[C@H](CC(=O)[O-])C[N+](C)(C)C [Dodecanoylcarnitine] | 868.7983 RFU | –
CCCCCCCCCC(C)=O [Compound 2-Undecanone, 2-Undecanone] | 1119.854 RFU | –
C[C@H]1O[C@@H](O[C@H]2[C@@H](O)C[C@H](O[C@H]3[C@@H](O)C[C@H](O[C@H]4CC[C@@]5(C)[C@H](CC[C@@H]6[C@@H]5CC[C@]5(C)[C@@H](C7=CC(=O)OC7)CC[C@]65O)C4)O[C@@H]3C)O[C@@H]2C)C[C@H](O)[C@@H]1O [Digitoxin] | 1074.946 RFU | –
OC[C@@H](O)[C@H](O)[C@H](O)[C@@H](O)CO [Dulcitol] | 642.9411 RFU | –
CC(=O)[C@H]1CC[C@H]2[C@@H]3CC[C@H]4CC(=O)CC[C@]4(C)[C@H]3CC[C@]12C [5a-Pregnane-3,20-dione] | 1117.705 RFU | –
N[C@@H](CCC(=O)O)C(=O)O [L-Glutamic Acid] | 1101.527 RFU and 821.1812 RFU | –
C[Se]C[C@H](N)C(=O)O [Se-Methylselenocysteine] | 889.6084 RFU | –
C[C@]12CC[C@H](O)C[C@@H]1CC[C@@H]1[C@@H]2CC[C@]2(C)C(=O)CC[C@@H]12 [Epiandrosterone] | 760.9004 RFU | –
Ginkgolide C | 1234.872 RFU | –
N[C@@H](C(=O)O)[C@@H](O)[C@H](O)[C@H](O)CO [D-Glucosaminic Acid] | 794.5821 RFU | –
COc1ccccc1OC [1,2-Dimethoxybenzene] | 1094.378 RFU and 752.9866 RFU | –
C[C@@]12C=Cc3occc3[C@H]1CC[C@@]13C[C@@H](CC[C@H]12)[C@@](O)(CO)C3 [Kahweol] | 608.7131 RFU | –

Compound | Lipase (RFU) | Hit in lipase inhibition screen (in words)
CC(=O)C=Cc1ccccc1 [Benzylideneacetone] | 1109.291 RFU | –
COc1cc(C[C@H](C)[C@H](C)Cc2ccc3c(c2)OCO3)ccc1O [Macelignan] | 621.9317 RFU | –
O=c1ccc2ccc(O[C@@H]3O[C@H](CO)[C@@H](O)[C@H](O)[C@H]3O)cc2o1 [Skimmin] | 1029.943 RFU | –
Nc1ncnc2c1ncn2[C@@H]1O[C@H](COP(=O)(O)O)[C@@H](O)[C@H]1O.O [Adenosine 5′-monophosphate monohydrate] | 920.9967 RFU | –
C[N+]1(C)CCC[C@H]1C(=O)[O-] [Stachydrine] | 1061.585 RFU | –
CC(=O)O[C@H]1CC(=O)OC(C)(C)[C@@H]2CC(=O)[C@]3(C)[C@H](CC[C@@]4(C)[C@H](c5ccoc5)OC(=O)[C@H]5O[C@]543)[C@@]12C [Nomilin] | 989.5541 RFU | –
NC(=O)c1ccc[n+]([C@@H]2O[C@H](COP(=O)([O-])OP(=O)(O)OC[C@H]3O[C@@H](n4cnc5c(N)ncnc54)[C@H](OP(=O)(O)O)[C@@H]3O)[C@@H](O)[C@H]2O)c1 [NADP] | 1113.421 RFU | –
Phytol | 1207.906 RFU and 715.6019 RFU | –
CC(C)=CCc1cc2ccc(=O)oc2cc1O [Demethylsuberosin] | 917.5135 RFU | –
O[C@H]1[C@H](O)[C@@H](O)[C@H](O)[C@@H](O)[C@H]1O [i-Inositol] | 1026.636 RFU and 1128.491 RFU | –
COc1ccc(C=O)cc1OC [Veratraldehyde] | 898.3756 RFU and 979.6116 RFU | –
COc1cc(CCN)ccc1O [Compound 3-Methoxytyramine, 3-Methoxytyramine] | 821.2607 RFU | –
C=C[C@@H](O)C#CC#C[C@@H](O)/C=C\CCCCCCC [Falcarindiol] | 827.8455 RFU | –
C1CNCCN1.O=C(O)CC(O)(CC(=O)O)C(=O)O [Piperazine (citrate)] | 986.285 RFU | –
Nc1ncnc(N[C@@H]2O[C@H](CO)[C@@H](O)[C@H]2O)c1[N+](=O)[O-] [Clitocine] | 1144.133 RFU | –
CC1=C(/C=C/C(C)=C/C=C/C(C)=C/C(=O)O)C(C)(C)CCC1=O [all-trans-4-Oxoretinoic acid] | 984.8749 RFU | –
CCCCCCCC(=O)O[C@H](CC(=O)[O-])C[N+](C)(C)C [L-Octanoylcarnitine] | 1071.191 RFU | –
CCCCCC(=O)O [Caproic Acid] | 905.3416 RFU | –
C[C@@H]1CC[C@@]2(NC1)O[C@H]1C[C@H]3[C@@H]4CC=C5C[C@@H](O)CC[C@]5(C)[C@H]4CC[C@]3(C)[C@H]1[C@@H]2C [Solasodine] | 1073.206 RFU | –
COc1cc(C(=O)O)cc(OC)c1OC [3,4,5-Trimethoxybenzoic acid] | 1121.402 RFU | –
COc1cc2c(cc1O)C[C@H]1c3c(cc(O)c(OC)c3-2)CCN1C [Boldine] | 931.6237 RFU | –
CC1(C)CC[C@]2(C(=O)O)CC[C@]3(C)C(=CC[C@@H]4[C@@]5(C)C[C@H](O)[C@H](O)[C@@](C)(C(=O)O)[C@@H]5CC[C@]43C)[C@@H]2C1 [Medicagenic acid] | 975.8957 RFU | –
c1ccc(CSSCc2ccccc2)cc1 [Dibenzyl disulfide] | 1113.399 RFU | –
O=C[C@@H](O)[C@H](O)[C@H](O)CO [Arabinose] | 1341.366 RFU | –
Oc1cc(O)c2cc(O)c(-c3cc(O)c(O)c(O)c3)[o+]c2c1.[Cl-] [Delphinidin (chloride)] | 816.1782 RFU | –
CC(C)(C)[C@]1(O)CC2OC(=O)CC23C(=O)OC2OC(=O)[C@H](O)C231 (some centres unmarked) [Bilobalide] | 1114.018 RFU | –
